From US11744877B2, “Method for permeabilizing tumor vasculature using a tumor vasculature permeabilizing molecule to improve access of a therapeutic or diagnostic agent to a tumor” (OXFORD UNIVERSITY INNOVATION LIMITED, priority 2010, dated 2023) come the findings set out here.

The nature of this experiment: Accumulation of intravascularly injected oncolytic adenovirus in EL4 tumours (hexon staining, qPCR of viral DNA). The format is in vivo, SCID-beige female mice. Conditions: 1 μg TNF; tumours 100 mm^3; versus vehicle; FIG. 1B. How it is done:
All adenoviruses were grown in 293 cells, and purified by double banding in CsCl gradients with Benzonase treatment after the first banding. Viral particle (VP) number was determined by measuring DNA content, using a PicoGreen assay (Invitrogen, Carlsbad, Calif.) (Murakami and McCaman, 1999, Anal Biochem; 274(2):283-8).
EL4 cells (2×10^6) were injected subcutaneously and allowed to form tumours in the left flank of 4- to 6-week-old SCID-beige female mice. Evans Blue was administered intravenously to compare permeability in 1 μg TNFα-treated animals versus controls. Oncolytic adenovirus was injected intravascularly when tumours were 100 mm^3 and relative distribution was assessed by hexon staining and quantitative polymerase chain reaction measurement of viral DNA.
To assess distribution of adenovirus in 1 μg TNF-treated animals versus controls, oncolytic adenovirus was injected intravascularly when tumours were 100 mm^3 and the relative distribution was assessed by hexon staining and quantitative polymerase chain reaction measurement of viral DNA. Three controls were also used.
Virus accumulation in the tumour was compared to that in the liver and in the spleen.
(Quantitative PCR measures a nucleic acid by following its amplification.)

Turning to “Angiotensin II (DRVYIHPF; Angiotensin-2; UniProt P01019 25-32, looked up) [control reported to increase tumour vessel permeability]”, the “increase in accumulation (uptake) of intravenously administered adenovirus particles in tumours” value was “increases were small compared to TNF”.

Take `COc1cc(/C=C\c2ccc(OC)c(OP(=O)(O)O)c2OP(=O)(O)O)cc(OC)c1OC` [combrestatin (OXI4503), combrestatin]: the “increase in accumulation (uptake) of intravenously administered adenovirus particles in tumours” value was “increases were small compared to TNF”.
